# Test results taken from patent US20200101056A1, “USE OF ROCK INHIBITORS FOR PROMOTING SINONASAL EPITHELIAL CELL REPAIR” (priority 2018, published 2020).
# What was measured:
# Type in all cases: cell-based, human
# [1] = system: pNECs from CRSwNP patients; assay: Analysis of lamellipodial dynamics by kymograph, pNECs from CRSwNP patients; conditions: SA 0.5% + Y-27632 5 μM, 0-2 h and 2-4 h, CRSwNP pNECs (FIG. 6)
# Protocol: Brightfield time-lapse series were made on pNECs from patients with CRSwNP and control subjects plated in 2-well silicone culture inserts (Ibidi #80209, Fitchburg, USA) using an inverted Axio ObserverZ1 microscope equipped with a CoolSNAP™ EZ CCD camera and a 10×/0.3 NA air objective lens, and then analyzed by AxioVision™ software.
# Immediately prior to image acquisition, cells were treated with LB (control condition for SA) or LB+water (control condition for SA+Y-27632). Cells were then positioned into the incubation chamber (37° C., 5% CO2) and images were captured every minute for 2 h to observe cell protrusions and retractions. Then, cells were treated with either SA exoproducts (concentration of 0.5% (v/v)) or a mix of SA (concentration of 0.5% v/v) and Y-27632 (5 μM), with the recording pursued during the following 4 h.
# A one pixel-wide line crossing the cell membrane perpendicularly to the lamellipodia was drawn, and this region was extracted from each image of the time-lapse series, as previously described by Choi et al.^38. […] Data derived from these segmented lines were generated using “read velocity tsp macro” of ImageJ and used to calculate the length and velocity of each protrusion. At least a total of 40-110 individual protrusion events per condition and at least 14 different cells were analyzed in 3 independent time-lapse series.
# [2] = system: pNECs monolayers from CRSwNP patients; assay: Wound healing assay (epithelial repair rate) of injured pNECs monolayers from CRSwNP patients; conditions: 6 h
# Protocol: diagnosis was performed according to the 2004 AAO-HNS guidelines^31, and patients underwent ESS following failure of medical treatment. Control patients underwent ESS for cerebral spinal fluid leak or non-secreting pituitary adenomas. Exclusion criteria for both groups comprised immune deficiencies, neoplasia, ciliary dyskinesia, cystic fibrosis, and systemic immunosuppression. Tissues obtained during surgery at the level of anterior ethmoidal bulla (control) or the polyp itself ([…]) were immediately collected for subsequent cell isolation and culture. After recovery, pNECs were isolated following a standardized procedure^32-35. […] After 18 h, Fetal Bovine Serum was added to the solution to neutralize the protease-DNase activity, and pNECs were gently scraped off the remaining tissue. […] Images were registered using AxioVisionTM 4.8 software (Carl Zeiss, Jena, Germany) and then analyzed with Image J software (NIH, Bethesda, Md., USA) to measure areas at t=0 h and t=6 h of wound healing and then to calculate the repair rates (expressed in μm^2/h).
# pNEC = assay: Pilot study of Y-27632 dose on epithelial repair in pNEC
# From the text: pNECs were injured mechanically (3 wounds/well, 3 wells/condition), using a well-established, highly reproducible technique^32,34,37. After wounding, the cultures were washed to remove detached cells, and then randomly treated in either of the following conditions (performed in triplicate): 1) negative control: 0.5% (v/v) of LB, 2) exposure to SA exoproducts, (at both concentrations of 0.25% and 0.5% (v/v) SA filtrate), and 3) exposure to SA exoproducts (both concentrations of 0.25% and 0.5% (v/v) SA filtrate) and the ROCK inhibitor Y-27632 dihydrochloride (5 μM, Sigma-Aldrich®).
# A mark on wells allowed us to capture images of the wounds at exactly the same place at t=0 h and t=6 h using an inverted microscope with a 4× objective (Nikon Eclipse™ TE 2000). Images were registered using AxioVision™ 4.8 software (Carl Zeiss, Jena, Germany) and then analyzed with Image J software (NIH, Bethesda, Md., USA) to measure areas at t=0 h and t=6 h of wound healing and then to calculate the repair rates (expressed in μm^2/h).
# The effect of a potent Rho kinase (ROCK) inhibitor, Y-27632, on epithelial repair in pNECs exposed to SA exoproducts was assessed. It was first determined, in a pilot study, that 5 μM was the optimal dose for Y-27632 in pNEC.
# [3] = system: nasal epithelia from CRSwNP patients; assay: Immunofluorescence of cytoskeleton and lamellipodial cell quantification at the wound edge, nasal epithelia from CRSwNP patients; conditions: 4 h
# Protocol: pNECs were grown to confluency on coverslips (precision cover glasses thickness No. 1.5H, Marienfeld, Lauda-Konigshofen, Germany) coated with Purecol™. After injury, (3 mechanical wounds/coverslip), cell monolayers were washed and then treated with either: 1) LB (concentration of 0.5% (v/v)): negative control, 2) SA exoproducts (concentration of 0.5% (v/v) SA filtrate) and 3) SA exoproducts (concentration of 0.5% (v/v) SA filtrate) and Y-27632 (5 μM). After 4 h of repair, cell monolayers were fixed with 4% paraformaldehyde in PBS for 5 min, permeabilized with 0.1% Triton™ X-100 in PBS for 10 min. After blocking (in 1% BSA in PBS for at least 1h at 4° C.), fixed cells were incubated with the primary anti-β-tubulin antibody (1:1000 in PBS+BSA1%, Millipore, Etobicoke, Canada) for 1 h at room temperature, and then with Alexa Fluor®-488 conjugated goat anti-mouse antibody secondary antibody (1:2000 in PBS+BSA1%,1 h, room temperature Thermo Fischer Scientific, Waltham, USA). F-actin was stained with Phalloidin-Alexa Fluor® 594 (1 unit, Thermo Fischer Scientific) (in PBS+BSA1%, for 1 h at room temperature) and nuclei with DAPI (1:1000 in PBS+BSA1%, for 5 min). Coverslips were mounted with ProLong® Gold Antifade Reagent (Molecular Probes, Eugene, USA) on SuperFrost™ glass slides (Thermo Fisher Scientific). Images were acquired with an inverted confocal microscope (TCS SP5, Leica Microsystems, Wetzlar, Germany) using an oil-immersion objective 63×/1.4. On immunofluorescence images, cells at the wound edge were classified according to the categories “with” or “without” lamellipodia as well as “ambiguous morphology” (see FIG. 10)^39. Percentages of cells in each category were then calculated.
# [4] = CRSwNP, SA 0.5% + vehicle (SA) or SA 0.5% + Y-27632 5 μM (SA+Y) (FIG. 7B)
structure (smiles),measurement,setting,value
C[C@@H](N)[C@H]1CC[C@H](C(=O)Nc2ccncc2)CC1 [Y-27632],length and velocity of protrusions after SA+Y vs. LB,[1],non-significant
same,increase of repair rates compared to corresponding SA condition in the absence of Y-27632,[2]; Y-27632 5 μM co-cultured with SA 0.25%,1.86 fold
same,increase of repair rates compared to corresponding SA condition in the absence of Y-27632,[2]; Y-27632 5 μM with SA 0.5%,2.22 fold
same,increase in epithelial repair rate,"pNEC; 5 μM, in LB condition",23%
same,effect of increasing concentrations on pNECs,pNEC; concentrations above 5 μM,altered migration and induced pNECs apoptosis
same,optimal dose in pNEC,pNEC; pilot study,5 μM
same,cells with lamellipodia,[3]; [4],65%
same,cells without lamellipodia,[3]; [4],8%
same,lamellipodial extensions at the leading edge (cytoskeleton organization),"[3]; SA 0.5% + Y-27632 5 μM, CRSwNP (FIG. 7A)",partially restored lamellipodial extensions
